The record followed here is US7268157B2, “Substituted arylalcanoic acid derivatives as PPAR pan agonists with potent antihyperglycemic and antihyperlipidemic activity” (Shenzhen Chipscreen Biosciences, Ltd., priority 2002, dated 2007).

SMILES strings stand for the structures.

One data set has as its system obese rat. The experiment in a line: Blood triglyceride and cholesterol in experimental obese rats. Format: in vivo. Particulars: 13-day treatment.
The nature of data set [1]: Body weight and abdomen fat weight in experimental obese rats. Type of data set: in vivo, rat. The settings on record: for Abdomen Fat Weight: 15-day treatment.

In turn, `CN(CCOc1ccc(CC2SC(=O)NC2=O)cc1)c1ccccn1` (stereo not shown) [Rosiglitazone, reference compound] gave a Cholesterol in the data set on obese rat (4 mg/kg) of 112.7 ± 25.5 mg/dL. Besides, the Triglyceride with obese rat (4 mg/kg) worked out at 273.3 ± 87.4 mg/dL. In addition, the “Body Weight” value was 594.9 ± 169.3 g in data set [1] (4 mg/kg, 0 day); 604.5 ± 181.4 g in data set [1] (4 mg/kg, 6 days); 601.6 ± 183.9 g in data set [1] (4 mg/kg, 9 days); 596.4 ± 176.8 g in data set [1] (4 mg/kg, 15 days). For the same compound, the “Abdomen Fat Weight” value in data set [1] (4 mg/kg) is given as 63.1 ± 31.4 g.
Take `O=C(c1ccc(F)cc1)c1ccccc1NC(Cc1ccc(OCCn2c3ccccc3c3ccccc32)cc1)C(=O)O` (stereo not shown) [CS-038, 2-[(2-(4-fluorobenzoyl)phenyl)amino]-3-[4-(2-carbazolylethoxy)-phenyl]-propionic acid]: the Cholesterol stood at 98.4 ± 29.4 mg/dL in the data set with obese rat (4 mg/kg) and 86.6 ± 37.7 mg/dL with obese rat (30 mg/kg). The Triglyceride amounted to 150.3 ± 52.1 mg/dL with obese rat (4 mg/kg) and 143.2 ± 61.8 mg/dL in the data set with obese rat (30 mg/kg). Besides, the “Body Weight” value in data set [1] (4 mg/kg, 0 day) worked out at 591.5 ± 130.0 g; in data set [1] (4 mg/kg, 6 days) it was 580.8 ± 130.2 g; in data set [1] (4 mg/kg, 9 days), 575.2 ± 130.6 g; in data set [1] (4 mg/kg, 15 days), 569.4 ± 122.9 g; in data set [1] (30 mg/kg, 0 day), 580.5 ± 134.9 g; in data set [1] (30 mg/kg, 6 days), 586.1 ± 143.2 g. The “Body Weight” value in data set [1] (30 mg/kg, 9 days) is recorded as 586.5 ± 144.2 g; in data set [1] (30 mg/kg, 15 days), 578.3 ± 176.8 g. Besides, the “Abdomen Fat Weight” value in data set [1] (4 mg/kg) came out at 55.8 ± 16.8 g; in data set [1] (30 mg/kg) it was 56.6 ± 21.1 g. The “body weight and abdomen fat increases” value in data set [1] (after 15-day drug treatment) is “does not induce body weight and abdomen fat increases”.
